Assay results reported in US10761085B2, “Method for determining a protein-protein interaction” (MEDICAL & BIOLOGICAL LABORATORIES CO., LTD., priority 2014, dated 2020).

What was measured:
[1] = tested on: calmodulin and M13 peptide tetramer formation (H1 receptor, calcium ion); details: 100 μM
Description: To express the fusion proteins in a combination of the following (A) or (B), the plasmid vectors prepared above were introduced into HeLaS3 cells by a method described below: • (A) Calumodulin-mAG1 and M13peptide-PB1; and • (B) Calumodulin-mUkG1 and M13peptide-PB1.
First, HeLaS3 cells were cultured in DMEM (low glucose) containing 10% FBS (manufactured by Equitech-Bio Inc.). Then, on the day before the transfection, the HeLaS3 cells were seeded onto a 35-mm glass base dish (manufactured by Asahi Glass Co., Ltd.). Subsequently, at the time of the transfection, the plasmids (1 μg+1 μg) were diluted with OptiMEM, and 10 μl of PolyFect(registered trademark) Transfection Reagent was added thereto and stirred. The resultant was further mixed with 600 μl of the culture solution, thereafter added to the HeLaS3 cells, and cultured for 22 hours.
Then, 100 μM histamine (manufactured by Wako Pure Chemical Industries, Ltd.) was added thereto, and fluorescence images were captured over time.

[2] = tested on: homodimer formation of ERK2; experiment: Fluorescent focus detection of ERK2 homodimer formation after EGF, serum-starved HEK293 cells (Example 11); type: cell-based
Description: HEK293 cells were selected as cells into which the expression vectors prepared above were introduced. The cells were first cultured in DMEM (high glucose) supplemented with 10% FBS (manufactured by Equitech-Bio Inc.) and 1% penicillin-streptomycin. Then, on the day before the introduction of the expression vectors, these cells were seeded onto a 35-mm dish, and cultured in 1.5 ml of the culture solution. […] Thereafter, each solution of the expression vectors was added to the cultured cells. The pERK2-hmAG1PB1 transfected cells were observed 20 hours after the vector introduction. To the pERK2-PB1-hmAG1 transfected cells, G418 was added at a concentration of 500 μg/mL, and further cultured for one week. After that, viable cells were detached using a trypsin solution, diluted with a culture solution containing G418 (500 μg/ml), and then cultured in a 96-well plate at 0.5 cells/well. Subsequently, cells which formed single colonies were cultured to expand.
Then, the cells were observed using an IX-71 inverted fluorescence microscope (the magnification of the objective lens: 20×), a U-MGFPHQ filter, and an ORCA-ER digital camera. The homodimer formation of ERK2 was induced by adding EGF (epidermal growth factor, manufactured by Sigma-Aldrich Co.) to the buffer to the final concentration of 50 ng/ml. FIGS. 26 and 27 show images before the EGF addition and 8 minutes after the addition.

[3] = tested on: homodimer formation of STAT3; experiment: Fluorescent focus detection of STAT3 homodimer formation after IL-6, HEK293 cells constitutively expressing PB1-mAG1-STAT3 (Example 12); type: cell-based; details: 100 ng/ml, 50 minutes; none before addition
Description: HEK293 cells were selected as cells into which the expression vector prepared above was introduced. The cells were first cultured in DMEM (high glucose) supplemented with 10% FBS and 1% penicillin-streptomycin. Then, on the day before the introduction of the expression vector, these cells were seeded onto a 35-mm dish, and cultured in 1.5 ml of the culture solution. […] Thereafter, the mixture solution of the expression vector was added to the cultured cells. After that, G418 was added thereto at a concentration of 500 μg/mL, and further cultured for one week. Next, viable cells were detached using a trypsin solution, diluted with a culture solution containing G418 (500 μg/ml), and then cultured in a 96-well plate at 0.5 cells/well. Subsequently, cells which formed single colonies were cultured to expand.
Then, the cells were observed using an IX-71 inverted fluorescence microscope (the magnification of the objective lens: 20×), a U-MGFPHQ filter, and an ORCA-ER digital camera. The homodimer formation of STAT3 was induced by adding Human Recombinant IL-6 (manufactured by R&D SYSTEMS, INC.) to the buffer to the final concentration of 100 ng/ml.

[4] = molecular target: T1, FKBP12 mutant homodimer formation (Homo sapiens, UniProt P62942, F37V); experiment: Reversible FKBP12 mutant homodimer formation in HEK293 cells constitutively expressing PB1-hmAG1-FKBP12 mutant, spot detection image analysis (Example 2); type: cell-based
T1 construct: expressed in transfected cells; host or cells: HEK293
Description: The pPB1-hmAG1-FKBP12 mutant was introduced into HEK293 cells, and cells constitutively expressing the fusion protein according to the present invention (PB1-hmAG1-FKBP12 mutant) were prepared. Specifically, on the day before the introduction of the expression vector, HEK293 cells were seeded onto a 35-mm dish (manufactured by BD Falcon), and cultured in 1.5 mL of the culture solution. Then, 1 μg of the pPB1-hmAG1-FKBP12 mutant was diluted with 100 μL of OptiMEM (manufactured by Life Technologies Corporation), and 10 μL of PolyFect (registered trademark) Transfection Reagent (manufactured by QIAGEN N.V.) was added thereto and then stirred. […] Thereafter, G418 was added thereto at a concentration of 500 μg/mL, and further cultured for one week. After that, viable cells were detached using a trypsin solution, diluted with a culture solution containing G418 (500 μg/ml), and then cultured in a 96-well plate at 0.5 cells/well. […]
The images captured over time by the above method were analyzed using spot detection (spot detector) of an icy image analysis program (icy.bioimageanalysis.org/). Moreover, from the images, a graph was created in which the X axis represents the operation time (minutes), and the Y axis represents a numerical value of a total fluorescence intensity in regions of the fluorescent foci within boxes drawn around the regions by lines.
Target sequence in this assay (P62942 whole entry F37V): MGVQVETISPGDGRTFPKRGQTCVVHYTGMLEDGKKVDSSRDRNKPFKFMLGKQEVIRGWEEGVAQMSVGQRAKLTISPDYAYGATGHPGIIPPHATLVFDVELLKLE

[5] = molecular target: T1, FKBP12 mutant homodimer formation; experiment: Fluorescent focus detection of FKBP12 mutant homodimer formation, PB1-mAG1-FKBP12 mutant transiently expressed in HEK293 cells (Example 1); type: cell-based; details: 500 nM
Description: Next, the pPB1-hmAG1-FKBP12 mutant prepared as described above was introduced into HEK293 cells, and the fusion protein according to the present invention was expressed in the cells. Specifically, first, HEK293 cells were cultured in DMEM (high glucose, manufactured by SIGMA ALDRICH CO.) supplemented with 10% FBS (manufactured by Equitech-Bio Inc.) and 1% penicillin-streptomycin (manufactured by Life Technologies Corporation). Then, on the day before the transfection, the HEK293 cells cultured in this manner were seeded onto an 8-well chamber slide (manufactured by Nunc A/S), and cultured in 200 μL of the culture solution per well. Subsequently, 100 ng of the pPB1-hmAG1-FKBP12 mutant was diluted with 10 μL of OptiMEM (manufactured by Life Technologies Corporation), and 0.4 μL of Turbofect Transfection Reagent (manufactured by Thermo Fisher Scientific Inc.) was added thereto and then stirred. Thereafter, the resultant was further mixed with 100 μL of the culture solution, then added to the HEK293 cells, and cultured for 20 hours.
After the transfection treatment, the HEK293 cells were observed using an IX-71 inverted fluorescence microscope (manufactured by Olympus Corporation, the magnification of the objective lens: 20×), a U-MGFPHQ filter (manufactured by Olympus Corporation), and an ORCA-ER digital camera (manufactured by Hamamatsu Photonics K. K.). […]
Target sequence in this assay (P62942 whole entry F37V): as above

[6] = molecular target: T1, FKBP12 mutant homodimer formation; experiment: FKBP12 mutant homodimer formation with DG1 or mCherry as fluorescent protein, HEK293 cells (Example 8); type: cell-based; details: 500 nM, 1, 2 and 3 hours, room temperature; PB1-DG1-FKBP12 mutant and PB1-mCherry-FKBP12 mutant
Source text: To express the PB1-hDG1-FKBP12 mutant or the PB1-mCherry-FKBP12 mutant in cells, the vectors encoding these fusion proteins were introduced into HEK293 cells by the same method as that described in Example 4.
After the transfection treatment, the HEK293 cells were observed using an IX-81 inverted microscope and an ORCA-Flash 4.0 digital camera. A U-MNIBA3 filter (manufactured by Olympus Corporation) and a U-MWIG3 filter (manufactured by Olympus Corporation) were used respectively for the DG1 and mCherry observations. The homodimer formation of the FKBP12 mutant was induced by adding 500 nM B/B Homodimerizer. After the drug addition, the resultant was left standing at room temperature. The cells were observed after 1, 2, and 3 hours elapsed. FIGS. 22 and 23 show images before the drug addition and 1, 2, and 3 hours after the addition.
Target sequence in this assay (P62942 2-108 F37V limits assumed): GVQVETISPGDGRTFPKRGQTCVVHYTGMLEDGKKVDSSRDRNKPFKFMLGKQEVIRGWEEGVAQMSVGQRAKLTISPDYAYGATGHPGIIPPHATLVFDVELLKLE

[7] = molecular target: T1, FKBP12 mutant homodimer formation; experiment: FKBP12 mutant homodimer formation with SAM domain of Tankyrase 1 as multimerizable protein, HEK293 cells (Example 9); type: cell-based; details: 500 nM, 3 hours, room temperature; Tankyrase-mAG1-FKBP12 mutant
Description: HEK293 cells were cultured in DMEM (high glucose) supplemented with 10% FBS and 1% penicillin-streptomycin. Then, on the day before the transfection, the cells were seeded onto an 8-well chamber slide. The cells were cultured in 200 μL of the culture solution per well. Subsequently, a DNA solution was prepared by mixing 200 ng of the plasmid with 10 μL of OptiMEM, and 0.8 μl of Fugene HD (manufactured by Promega Corporation) was added thereto and then stirred. The resultant was further mixed with 100 μl of the culture solution, then added to the HEK293 cells, and cultured for 20 hours.
After the transfection treatment, the HEK293 cells were observed using an IX-81 inverted microscope and an ORCA-Flash 4.0 digital camera. A U-MNIBA3 filter was used for the observation. The homodimer formation of the FKBP12 mutant was induced by adding 500 nM B/B Homodimerizer to the medium. In addition, after the drug was added, the resultant was left standing at room temperature. The cells were observed after 3 hours elapsed.
Target sequence in this assay (P62942 2-108 F37V limits assumed): as above

[8] = molecular target: T1, FKBP12 mutant homodimer formation; experiment: Comparative Example 1: method of PTL 4 (PB1-FKBP12 mutant and AG-FKBP12 mutant) for FKBP12 mutant homodimer formation in HEK293 cells; type: cell-based; details: method of PTL 4, 66 minutes after the drug addition
Description: In the detection system described in PTL 4, the PB1 domain of the p62 protein was selected as the association-inducing protein. Moreover, AG was selected as the fluorescent multimerizable protein, and a DNA encoding humanized-codon AG (hAG) was used.
Further, an expression vector (pPB1-FKBP12 mutant) encoding a fusion protein composed of the FKBP12 mutant fused to the C-terminus of the PB1 domain of the p62 protein was prepared as follows. Specifically, a DNA having the nucleotide sequence of SEQ ID NO: 31 was artificially synthesized which contained restriction enzyme sites at either end of a DNA having a nucleotide sequence encoding the FKBP12 mutant (the DNA encoding a protein having the amino acid sequence of SEQ ID NO: 32). Then, the obtained synthetic DNA was cleaved with EcoRI and XhoI, and inserted into pAsh-MCLinker (manufactured by MEDICAL & BIOLOGICAL LABORATORIES CO., LTD.) having been treated with a combination of the same restriction enzymes. Thus, a pPB1-FKBP12 mutant was constructed. […]
Further, 100 ng of each of the expression vectors thus constructed was mixed, that is, 200 ng of these were mixed in total, and fluorescent foci in cells before and after the drug addition were detected according to the same methods as <Cell Culturing and Transfection> and <Observation of Cells> described in Example 1.
Target sequence in this assay (P62942 2-108 F37V limits assumed): as above

## NCCc1c[nH]cn1 [histamine]
[1]; 60 seconds after the ligand was added, Calmodulin-mAG1 or Calmodulin-mUkG1 with M13peptide-PB1
  fluorescent focus formation: fluorescent focus formation was detected
[1]; 300 seconds after the ligand addition (FIG. 35)
  extinction of fluorescent foci: the fluorescent foci (assemblies) were extinguished

## EGF: epidermal growth factor, manufactured by Sigma-Aldrich Co. (NSDSECPLSHDGYCLHDGVCMYIEALDKYACNCVVGYIGERCQYRDLKWWELR; UniProt P01133 971-1023, looked up)
[2]; 50 ng/ml, 8 minutes, ERK2-mAG1-PB1 transient, none before addition
  fluorescent focus formation: fluorescent foci were observed in multiple cells
[2]; 8 minutes after EGF addition, cells constitutively expressing ERK2-PB1-hmAG1 (FIG. 27)
  fluorescent focus formation: fluorescent foci indicating the homodimer formation of ERK2 were detected

## IL-6: Human Recombinant IL-6, manufactured by R&D SYSTEMS, INC.
[3]
  fluorescent focus formation: fluorescent foci were observed in multiple cells

## CC[C@H](C(=O)N1CCCC[C@H]1C(=O)O[C@H](CCc1ccc(OC)c(OC)c1)c1cccc(OCC(=O)NCC(CNC(=O)COc2cccc([C@@H](CCc3ccc(OC)c(OC)c3)OC(=O)[C@@H]3CCCCN3C(=O)[C@@H](CC)c3cc(OC)c(OC)c(OC)c3)c2)CN(C)C)c1)c1cc(OC)c(OC)c(OC)c1 [B/B Homodimerizer]
[4]; 500 nM, 90 minutes after the B/B Homodimerizer addition
  fluorescent focus formation: distinctive fluorescent foci were observed in multiple cells
[4]; when formation of fluorescent foci started to be observed immediately after the B/B Homodimerizer addition
  fluorescence intensity relative to that before the addition: 1.9 times
[5]; 38 minutes after the drug addition, none before addition
  fluorescent focus formation: fluorescent foci were observed in multiple cells
[5]; 76 minutes after the addition
  fluorescent focus formation: many cells which exhibited distinctive fluorescent foci were observed
[6]
  fluorescent focus formation: drug-addition dependent increases in fluorescent foci were observed
[7]
  fluorescent focus formation: fluorescent focus formations attributable to the addition of the drug
[8]
  fluorescent focus formation: fluorescent foci were formed only in a few cells
